Assay results from ChEMBL document CHEMBL1148854, “Synthesis and biological evaluation of unprecedented classes of spiro-beta-lactams and azido-beta-lactams as acyl-CoA:cholesterol acyltransferase inhibitors” (Bioorg Med Chem Lett, 2007).

What was measured:
[1] = molecular target: T1, Acyl-CoA:cholesterol acyltransferase (Oryctolagus cuniculus, UniProt Q95214); assay: Inhibition of ACAT in Albino rabbit intestinal mucosa
T1 sequence (Q95214 whole entry): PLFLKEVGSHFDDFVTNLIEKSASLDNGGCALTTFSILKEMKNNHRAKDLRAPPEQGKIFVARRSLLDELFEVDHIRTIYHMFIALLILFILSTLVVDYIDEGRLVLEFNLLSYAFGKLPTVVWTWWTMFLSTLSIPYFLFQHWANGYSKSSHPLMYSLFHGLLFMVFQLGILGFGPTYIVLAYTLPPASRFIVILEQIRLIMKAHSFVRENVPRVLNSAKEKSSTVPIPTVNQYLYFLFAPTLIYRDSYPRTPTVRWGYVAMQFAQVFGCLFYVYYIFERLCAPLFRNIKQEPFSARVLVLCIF

[2] = molecular target: T2, Acyl-CoA:cholesterol acyltransferase (Oryctolagus cuniculus) (UniProt Q95214); assay: Inhibition of ACAT in Albino rabbit intestinal mucosa at 10 uM
T2 sequence (whole entry): T1 sequence (Q95214 whole entry)

IC50 [1] [µM] | inhibition [2] [%] | SMILES
16.8 |  | CC[C@H](C)C(=O)O[C@H]1C[C@@H](C)C=C2C=C[C@H](C)[C@H](CC[C@@H]3C[C@@H](O)CC(=O)O3)[C@H]21 [LOVASTATIN]
 | 65 | CC[C@@H](N=[N+]=[N-])[C@@H](O)[C@]1(Br)C(=O)N([C@@H](C)c2ccccc2)[C@H]1c1ccccc1
 | 60 | CC[C@H](N=[N+]=[N-])[C@H](O)[C@]1(Br)C(=O)N([C@@H](C)c2ccccc2)[C@H]1c1ccccc1
